From doi:10.1101/2024.05.30.596757v1 (biorxiv, 2024)

Assays:
[1] = target: eGFP-53BP1 (Homo sapiens, UniProt Q12888); assay: eGFP-53BP1 foci count per nucleus by confocal microscopy, DIvA cells; format: cell-based
[2] = target: 53BP1 TTD (tandem tudor domain) (Homo sapiens, UniProt Q12888); assay: SPR, OneStep gradient injections, kinetic fit with mass transport; format: binding
Sequence of 53BP1 TTD (tandem tudor domain) (Q12888 1483-1606): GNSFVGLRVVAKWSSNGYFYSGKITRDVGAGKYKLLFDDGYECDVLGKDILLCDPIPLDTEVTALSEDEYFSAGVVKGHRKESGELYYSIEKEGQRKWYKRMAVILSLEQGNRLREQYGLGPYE

Sequence of eGFP-53BP1 (Q12888 whole entry, the tested form may be a part): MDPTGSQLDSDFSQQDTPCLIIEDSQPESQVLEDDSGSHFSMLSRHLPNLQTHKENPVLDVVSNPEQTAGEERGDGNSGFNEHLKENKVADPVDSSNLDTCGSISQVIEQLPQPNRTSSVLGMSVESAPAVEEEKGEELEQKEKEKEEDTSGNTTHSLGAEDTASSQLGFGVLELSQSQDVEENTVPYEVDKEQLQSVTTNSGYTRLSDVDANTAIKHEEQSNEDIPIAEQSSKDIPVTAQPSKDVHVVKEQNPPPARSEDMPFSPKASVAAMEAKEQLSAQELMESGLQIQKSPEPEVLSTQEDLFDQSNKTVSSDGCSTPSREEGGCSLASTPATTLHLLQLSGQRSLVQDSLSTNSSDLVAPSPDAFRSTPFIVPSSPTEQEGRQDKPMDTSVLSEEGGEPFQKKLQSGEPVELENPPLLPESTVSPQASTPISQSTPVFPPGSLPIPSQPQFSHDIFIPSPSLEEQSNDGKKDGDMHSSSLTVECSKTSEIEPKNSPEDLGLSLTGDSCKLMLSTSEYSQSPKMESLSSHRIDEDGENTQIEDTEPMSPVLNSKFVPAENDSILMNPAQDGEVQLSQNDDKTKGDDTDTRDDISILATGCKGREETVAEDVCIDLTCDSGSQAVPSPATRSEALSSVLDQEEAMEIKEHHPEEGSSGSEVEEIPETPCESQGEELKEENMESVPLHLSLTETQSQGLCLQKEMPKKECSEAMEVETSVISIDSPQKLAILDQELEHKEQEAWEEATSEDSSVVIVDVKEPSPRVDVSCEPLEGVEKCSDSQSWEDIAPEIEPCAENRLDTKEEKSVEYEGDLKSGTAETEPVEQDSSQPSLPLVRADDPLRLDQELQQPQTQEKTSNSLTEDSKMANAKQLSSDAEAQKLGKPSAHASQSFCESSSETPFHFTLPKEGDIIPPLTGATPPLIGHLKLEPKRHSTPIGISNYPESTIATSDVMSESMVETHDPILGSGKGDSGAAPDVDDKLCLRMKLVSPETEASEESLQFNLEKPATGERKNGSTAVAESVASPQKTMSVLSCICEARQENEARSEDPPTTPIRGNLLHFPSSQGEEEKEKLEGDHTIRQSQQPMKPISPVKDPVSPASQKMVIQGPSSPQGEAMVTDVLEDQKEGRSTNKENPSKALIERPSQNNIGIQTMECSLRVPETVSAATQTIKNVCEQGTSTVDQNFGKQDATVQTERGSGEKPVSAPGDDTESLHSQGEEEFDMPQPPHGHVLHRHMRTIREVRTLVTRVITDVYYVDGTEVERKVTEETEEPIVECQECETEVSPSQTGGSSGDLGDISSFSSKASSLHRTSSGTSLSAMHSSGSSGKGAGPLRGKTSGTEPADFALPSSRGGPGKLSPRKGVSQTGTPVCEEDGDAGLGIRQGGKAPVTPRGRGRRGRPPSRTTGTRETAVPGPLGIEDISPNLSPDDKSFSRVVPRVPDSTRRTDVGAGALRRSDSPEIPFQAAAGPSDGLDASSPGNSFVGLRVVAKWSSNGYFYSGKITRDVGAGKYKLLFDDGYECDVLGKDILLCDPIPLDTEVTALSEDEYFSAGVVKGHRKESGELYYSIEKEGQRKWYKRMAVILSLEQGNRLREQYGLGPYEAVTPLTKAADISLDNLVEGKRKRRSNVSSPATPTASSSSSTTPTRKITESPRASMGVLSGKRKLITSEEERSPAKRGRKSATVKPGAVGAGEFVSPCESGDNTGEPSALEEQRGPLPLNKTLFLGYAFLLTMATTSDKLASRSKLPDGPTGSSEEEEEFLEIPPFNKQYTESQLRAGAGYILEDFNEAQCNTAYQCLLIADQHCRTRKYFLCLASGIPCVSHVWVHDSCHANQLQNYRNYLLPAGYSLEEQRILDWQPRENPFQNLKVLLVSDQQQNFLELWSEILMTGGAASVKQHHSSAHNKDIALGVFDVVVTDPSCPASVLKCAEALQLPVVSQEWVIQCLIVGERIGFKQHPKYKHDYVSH

IC50 [1]: 13 ± 5 µM
Kd [2]: 14 µM
Compound: CCN1CCN(C(=O)c2ccc(Cn3nc(C)cc3C)cc2)CC1 [EoHR, (4-((3,5-dimethyl-1H-pyrazol-1-yl)methyl)phenyl)(4-ethylpiperazin-1-yl)methanone]
